Data: article PMC2748101, “Transcriptome analysis of the responses of Staphylococcus aureus to antimicrobial peptides and characterization of the roles of vraDE and vraSR in antimicrobial resistance” (BMC Genomics, 2009)
Converted amounts (≈) assume the structure as drawn. “And” between values parts separate entries of the source, which are not always exact repeats. Equal entries are not always repeated. Where no end group is shown, it is not given here.

Columns and labels:
S. aureus Newman [1] = conditions: for MIC: S. aureus Newman, Mueller-Hinton broth, 16-24 h, 37°C, two-fold dilution series, performed twice
ΔvraSR/S. aureus Newman = conditions: for Effect of the ΔvraSR mutation on sensitivity: MIC, 100%, 50% (LL-37, nisin, Pep5) or 25% (hBD3) Mueller-Hinton broth; for MIC: ΔvraSR/S. aureus Newman, Mueller-Hinton broth, 16-24 h, 37°C, two-fold dilution series, performed twice
S. aureus RN4220 = conditions: Mueller-Hinton broth, 16-24 h, 37°C, two-fold dilution series, performed twice
ΔvraDE/S. aureus Newman = conditions: ΔvraDE/S. aureus Newman; Mueller-Hinton broth, 16-24 h, 37°C, two-fold dilution series, performed twice
ΔvraSR/ RN4220 = conditions: Mueller-Hinton broth, 16-24 h, 37°C, two-fold dilution series, performed twice
ΔvraDE/ RN4220 = conditions: Mueller-Hinton broth, 16-24 h, 37°C, two-fold dilution series, performed twice
S. aureus Newman [2] = experiment: qRT-PCR of gene induction in treated wild-type cells; type: cell-based, Staphylococcus aureus; conditions: 10 min; for Fold induction SA0205 / Fold induction groEL / Fold induction prsA / Fold induction vraD: 5 × MIC (temporin-L-NH2 subinhibitory 2 μg/ml, pentaglycine 20 μg/ml), treated/untreated, mean of three experiments (SD)
[3] = test system: wild-type S. aureus Newman; type: cell-based, Staphylococcus aureus
S. aureus Newman [4] = type: cell-based, Staphylococcus aureus

Molecule: Nisin: lantibiotic (ITSISLCTPGCKTGALMGCNMKTATCHCSIHVSK; also: lantibiotic, modified residues and thioether rings not given here; UniProt P13068 24-57, looked up)
- MIC (S. aureus Newman [1]): 6.25 µg/mL
- Effect of the ΔvraSR mutation on sensitivity (ΔvraSR/S. aureus Newman): did not affect the sensitivity
- MIC (S. aureus RN4220): 6.25 µg/mL

Molecule: CCCCCCCCCC(=O)N[C@@H](Cc1c[nH]c2ccccc12)C(=O)N[C@H](CC(N)=O)C(=O)N[C@@H](CC(=O)O)C(=O)N[C@@H]1C(=O)NCC(=O)N[C@@H](CCCN)C(=O)N[C@@H](CC(=O)O)C(=O)N[C@H](C)C(=O)N[C@@H](CC(=O)O)C(=O)NCC(=O)N[C@H](CO)C(=O)N[C@@H]([C@H](C)CC(=O)O)C(=O)N[C@@H](CC(=O)c2ccccc2N)C(=O)O[C@@H]1C [Daptomycin]
- MIC (S. aureus Newman [1]): 2.5 µg/mL (≈ 1.54 µM)
- Effect of the ΔvraSR mutation on sensitivity (ΔvraSR/S. aureus Newman): did not affect the sensitivity
- MIC (ΔvraSR/S. aureus Newman): 2.5 µg/mL (≈ 1.54 µM)
- MIC (ΔvraDE/S. aureus Newman): 2.5 µg/mL (≈ 1.54 µM)
- MIC (S. aureus RN4220): 2.5 µg/mL (≈ 1.54 µM)
- MIC (ΔvraSR/ RN4220): 2.5 µg/mL (≈ 1.54 µM)
- MIC (ΔvraDE/ RN4220): 2.5 µg/mL (≈ 1.54 µM)

Molecule: A(D-Glu)K(D-Ala)GGGGGA(D-Glu)K(D-Ala) [Pentaglysin]
- Induction of vraD, SA0205, prsA and groEL (in words) (S. aureus Newman [2]; 20 μg/ml): did not induce any of the four genes
- Fold induction SA0205 (S. aureus Newman [2]): 1.3 (0.1) fold
- Fold induction groEL (S. aureus Newman [2]): 1.1 (0.0) fold
- Fold induction prsA (S. aureus Newman [2]): 1.3 (0.0) fold
- Fold induction vraD (S. aureus Newman [2]): 1.0 (0.0) fold
- Antimicrobial activity at the concentration used (S. aureus Newman [1]; 20 μg/ml): not antimicrobial

Molecule: KNLRRIIRKIIHIIKKYG-OH [Ovispirin-1]
- Fold induction SA0205 (S. aureus Newman [2]): 5.1 (1.0) fold
- Fold induction groEL (S. aureus Newman [2]): 2.5 (0.5) fold
- Fold induction prsA (S. aureus Newman [2]): 7.2 (1.6) fold
- Fold induction vraD (S. aureus Newman [2]): 3.7 (0.5) fold
- MIC (S. aureus Newman [1]): 20 µg/mL
- Effect of the ΔvraSR mutation on sensitivity (ΔvraSR/S. aureus Newman): did not affect the sensitivity
- MIC (ΔvraSR/S. aureus Newman): 20 µg/mL
- MIC (ΔvraDE/S. aureus Newman): 20 µg/mL
- MIC (S. aureus RN4220): 20 µg/mL
- MIC (ΔvraSR/ RN4220): 20 µg/mL
- MIC (ΔvraDE/ RN4220): 20 µg/mL

Molecule: CN(C)CCCN1c2ccccc2Sc2ccc(Cl)cc21 [chlorpromazine]
- Growth of wild-type strain in the presence of the antimicrobial [3]: grew significantly

Molecule: FVQWFSKFLGRIL-NH2 [Temporin L-NH2]
- MIC (S. aureus Newman [1]): 6 µg/mL
- MIC (ΔvraSR/S. aureus Newman): 6 µg/mL
- MIC (ΔvraDE/S. aureus Newman): 6 µg/mL
- MIC (S. aureus RN4220): 3 µg/mL
- MIC (ΔvraSR/ RN4220): 3 µg/mL
- MIC (ΔvraDE/ RN4220): 3 µg/mL

Molecule: LL-37: human cathelicidin (LLGDFFRKSKEKIGKEFKRIVQRIKDFLRNLVPRTES; Antibacterial peptide LL-37; UniProt P49913 134-170, looked up)
- Effect of the ΔvraSR mutation on sensitivity (ΔvraSR/S. aureus Newman): did not affect the sensitivity

Molecule: ALWKTLLKKVLKAAAK-NH2 [Dermaseptin K4-S4(1-16)-NH2]
- Number of genes with decreased expression (S. aureus Newman [4]): 134 genes
- Fold induction SA0336 (S. aureus Newman [4]; n=3): 2.2, 2.1, 2.1 fold
- Fold induction SA0342 (S. aureus Newman [4]; n=3): 2.2, 2.2 fold
- Fold induction SA0358 (S. aureus Newman [4]; n=3): 2.4, 2.4 fold
- Fold induction SA0428 (S. aureus Newman [4]; n=3): 2.3 fold and 3.6, 2.4, 2.3 fold
- Fold induction SA0526 (S. aureus Newman [4]; n=3): 2.2, 2.0 fold
- Fold induction SA0591 (S. aureus Newman [4]; n=3): 2.1 fold and 3.0, 3.3, 2.1 fold
- Fold induction SA0825 (spsA) (S. aureus Newman [4]; n=3): 2.0 fold and 2.6, 3.5, 2.0 fold
- Fold induction SA0826 (spsB) (S. aureus Newman [4]; n=3): 2.1, 2.7, 2.0 fold
- Fold induction SA0903 (S. aureus Newman [4]; n=3): 2.6 fold and 2.1, 4.1, 2.6 fold
- Fold induction SA0914 (S. aureus Newman [4]; n=3): 2.3, 2.5, 2.0 fold
- Fold induction SA0962 (S. aureus Newman [4]; n=3): 2.4, 2.8, 2.4 fold
- Fold induction SA1184 (citB) (S. aureus Newman [4]; n=3): 2.5, 2.4, 2.0 fold
- Fold induction SA1217 (S. aureus Newman [4]; n=3): 3.0, 2.4 fold
- Fold induction SA1218 (pstB) (S. aureus Newman [4]; n=3): 2.9 fold
- Fold induction SA1219 (S. aureus Newman [4]; n=3): 4.2 fold and 5.4, 4.2 fold
- Fold induction SA1220 (S. aureus Newman [4]; n=3): 2.3, 2.1 fold
- Fold induction SA1221 (S. aureus Newman [4]; n=3): 3.1, 2.8 fold
- Fold induction SA1235 (S. aureus Newman [4]; n=3): 2.4, 2.1, 2.6 fold
- Fold induction SA1476 (S. aureus Newman [4]; n=3): 3.3 fold and 4.2, 5.3, 3.3 fold
- Fold induction SA1477 (S. aureus Newman [4]; n=3): 5.5, 6.8, 3.8 fold
- Fold induction SA1517 (citC) (S. aureus Newman [4]; n=3): 3.1 fold and 4.9, 5.8, 3.1 fold
- Fold induction SA1518 (citZ) (S. aureus Newman [4]; n=3): 6.0, 6.7, 3.6 fold
- Fold induction SA1549 (htrA) (S. aureus Newman [4]; n=3): 2.0 fold and 2.9, 3.0, 2.0 fold
- Fold induction SA1659 (prsA) (S. aureus Newman [4]; n=3): 2.9 fold and 3.2, 4.5, 2.9 fold
- Fold induction SA1700 (vraR) (S. aureus Newman [4]; n=3): 3.2, 5.0, 2.8 fold
- Fold induction SA1701 (vraS) (S. aureus Newman [4]; n=3): 2.5 fold and 3.9, 5.3, 2.5 fold
- Fold induction SA1702 (S. aureus Newman [4]; n=3): 4.3, 5.7, 2.6 fold
- Fold induction SA1703 (S. aureus Newman [4]; n=3): 3.7, 4.2, 2.1 fold
- Fold induction SA1706 (S. aureus Newman [4]; n=3): 2.0, 2.0, 2.1 fold
- Fold induction SA1710 (S. aureus Newman [4]; n=3): 2.2, 2.4, 2.1 fold
- Fold induction SA1820 (S. aureus Newman [4]; n=3): 2.2 fold and 3.6, 3.0, 2.2 fold
- Fold induction SA1836 (groEL) (S. aureus Newman [4]; n=3): 2.2 fold and 3.8, 4.3, 2.2 fold
- Fold induction SA1837 (groES) (S. aureus Newman [4]; n=3): 3.2, 3.6, 2.4 fold
- Fold induction SA1858 (ilvD) (S. aureus Newman [4]; n=3): 4.9, 2.5, 2.1 fold
- Fold induction SA1860 (S. aureus Newman [4]; n=3): 15.7, 4.3, 2.1 fold
- Fold induction SA1863 (leuB) (S. aureus Newman [4]; n=3): 9.7, 4.2, 2.2 fold
- Fold induction SA1971 (S. aureus Newman [4]; n=3): 2.2, 2.5, 2.2 fold
- Fold induction SA1990 (S. aureus Newman [4]; n=3): 2.2 fold and 3.4, 2.6, 2.2 fold
- Fold induction SA2113 (S. aureus Newman [4]; n=3): 2.2 fold and 2.2, 3.7, 2.2 fold
- Fold induction SA2301 (S. aureus Newman [4]; n=3): 2.3, 2.2, 2.1 fold
- Fold induction SA2343 (S. aureus Newman [4]; n=3): 2.7 fold and 4.3, 4.3, 2.7 fold
- Fold induction SA2481 (S. aureus Newman [4]; n=3): 2.1, 3.1, 2.7 fold
- Fold induction SA2493 (vraE) (S. aureus Newman [4]; n=3): 3.4, 11.8, 6.2 fold
- Fold induction SAS016 (S. aureus Newman [4]; n=3): 5.4 fold and 5.0, 7.4, 5.4 fold
